Data on 1 molecule can be found in ChEMBL document CHEMBL5154669, “G-Quadruplex DNA as a Target in Pathogenic Bacteria: Efficacy of an Extended Naphthalene Diimide Ligand and Its Mode of Action” (J Med Chem, 2022).

Molecules are shown by their SMILES. Where only a bound is given, the exact number is not on record here.

For assay [1], the system named is DNA. Description: Stabilization of Escherichia coli in G-quadruplex DNA GGG GCG GGG TGG GTT GG assessed as change in melting temperature at 10 uM incubated for 16 hrs by CD melting method.
Assay [2] concerns DNA. The experiment in a line: Stabilization of Staphylococcus aureus in G-quadruplex DNA GGGTTTGGGGCGGCGGTTGG assessed as change in melting temperature at 10 uM incubated for 16 hrs by FRET method. The assay is classed as nucleic-acid assay. To be noted: in the assay text read “by CD melting method” for “by FRET method”.

Regarding `CN(C)CCCn1c(=O)c2ccc3c(=O)n(CCCN(C)C)c(=O)c4c5[nH]c6ccccc6[nH]c5c(c1=O)c2c34.O=C(O)C(F)(F)F.O=C(O)C(F)(F)F`, the ΔTm in the assay with DNA [1] is 18.8 °C; with DNA [2], over 35.6 °C.

The term ΔTm denotes the change in melting temperature against a reference sample.
